This passage reports TGI results from PubChem BioAssay (NCI).

Each structure is given as a SMILES string.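 Tested at 5 concentrations; 48 h exposure; 96-well plates; endpoints linearly interpolated, else capped at highest concentration. The concentration for full growth arrest is given as TGI.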

Experiment in all cases: NCI anticancer screen, dose series, 48 h
Assay [1] deals with LOX IMVI melanoma.
Assay [2] deals with COLO 205 colon.
In assay [3] the test system is MDA-MB-435.
The test system of assay [4] is HL-60(TB) leukemia.
Assay [5] concerns OVCAR-4 ovarian.
Assay [6] has as its system NCI-H460 lung.
Assay [7] relates to HOP-62 NSCLC.
In assay [8] the test system is HOP-92 NSCLC.
The test system of assay [9] is UACC-257 melanoma.
Assay [10] has as its system SK-MEL-2 melanoma.
Assay [11] has as its system NCI/ADR-RES ovarian.
In assay [12] the test system is OVCAR-3 ovarian.
Assay [13] has as its system EKVX NSCLC.
In assay [14] the test system is CAKI-1 renal.
For assay [15], the system named is MALME-3M melanoma.

As for `O=c1c2cc(I)ccc2nc(SCc2nncs2)n1Cc1ccccc1`, the TGI in assay [1], in [2], in assay [3], in assay [4], in assay [5] and in assay [6] was more than 100 µM in each case. In addition, the TGI in assay [7] is more than 100 µM; in assay [8] it was 35.1 µM; in [9] it was more than 100 µM; in [10], 85.5 µM; in [11], more than 100 µM; in [12], more than 100 µM. The TGI in assay [13] came out at 48.6 µM.
For `CCOC(=O)c1c[nH]c2c(Sc3ccccc3)nccc2c1=O`, the TGI in [1] was more than 100 µM; in assay [2], more than 100 µM; in [3], more than 100 µM; in [4], 83.2 µM; in assay [5], more than 100 µM; in [6] it was more than 100 µM. The TGI in assay [14], in [7], in [8], in assay [9], in assay [10] and in assay [11] was more than 100 µM in each case. Also, the TGI in assay [12] and in [13] was more than 100 µM throughout.
Take `O=c1[nH]c(Cc2ccccc2)nc2c1sc1nc3ccccc3n12`: the TGI in assay [1], in assay [2], in [3], in assay [4], in assay [5] and in [6] was more than 100 µM each time. The TGI in assay [14], in [8], in assay [9], in [10], in assay [11] and in [12] was more than 100 µM throughout. The TGI in assay [13] is more than 100 µM.
`CC(=O)O[C@H]1C(=O)[C@@]2(C)[C@H]([C@H](OC(=O)c3cccc([N+](=O)[O-])c3)[C@]3(O)C[C@H](OC(=O)[C@H](O)[C@@H](NC(=O)c4ccccc4)c4ccccc4)C(C)=C1C3(C)C)[C@]1(OC(C)=O)CO[C@@H]1C[C@@H]2O`: the TGI is more than 25 µM in assay [1]; 0.0114 µM in assay [3]; less than 0.0025 µM in assay [4]; more than 25 µM in [5]; more than 25 µM in assay [6]; more than 25 µM in assay [14]. Further, the TGI in assay [7] was more than 25 µM; in assay [8] it was more than 25 µM; in [9], more than 25 µM; in assay [10], more than 25 µM; in assay [11] it was more than 25 µM; in assay [12] it was 0.0183 µM. In addition, in assay [13], the TGI is more than 25 µM.
As for `CC1=CC(=O)CC(C)(C)C1/C=C/C(C)=C/C=C/C(C)=C/C=C/C=C(C)/C=C/C=C(C)/C=C/C1C(C)=CC(=O)CC1(C)C` (centres undefined), the TGI is 85.6 µM in [1]; 71.4 µM in [3]; more than 100 µM in assay [4]; more than 100 µM in [5]; more than 100 µM in [6]; more than 100 µM in assay [14]. Moreover, the TGI in assay [7] was more than 100 µM; in assay [8], 62.8 µM; in [9] it was more than 100 µM; in assay [10], more than 100 µM; in assay [11], more than 100 µM; in assay [12], more than 100 µM. In [13], this compound came in with a TGI of more than 100 µM.
For `CC#CC(O)(C(=O)OCCCN(C)C)C1CCCCC1` (centres undefined), the TGI in assay [1], in assay [2], in [3], in [4], in [6] and in assay [7] was more than 100 µM each time. Moreover, the TGI in [8], in [9], in assay [10], in assay [11], in assay [12] and in assay [15] was more than 100 µM each time. This compound also gave a TGI in [13] of more than 100 µM.
For the compound `O=c1[nH]c2ccccc2c(=O)n1/N=C/c1ccc(O)cc1`, the TGI in assay [1], in [2], in assay [3], in [4], in assay [6] and in [14] was more than 100 µM in each case. The TGI is 48 µM in [7]; 90.4 µM in assay [8]; more than 100 µM in [9]; more than 100 µM in [10]; more than 100 µM in assay [11]; more than 100 µM in assay [12]. For the same compound, the TGI in assay [13] was more than 100 µM.
On to `COc1ccc(N=Nc2c(C)c(C#N)c(=S)n(C3OC(CO)C(O)C(O)C3O)c2-c2ccccc2)cc1` (centres undefined), for which the TGI in assay [1] was 99.6 µM; in assay [2] it was more than 100 µM; in assay [3], 73.9 µM; in [4] it was more than 100 µM; in assay [5], more than 100 µM; in assay [6], more than 100 µM. The TGI in assay [14] is 73.3 µM; in assay [7] it was 98.2 µM; in assay [9], more than 100 µM; in [10], 89.7 µM; in assay [11], more than 100 µM; in assay [12], 55.3 µM. Moreover, the TGI in [15] turned out to be 63.1 µM.
Regarding `c1ccc([P+](CCSCCSCC[P+](c2ccccc2)(c2ccccc2)c2ccccc2)(c2ccccc2)c2ccccc2)cc1`, the TGI in assay [2], in assay [3], in assay [4], in [5], in assay [6] and in [7] was more than 100 µM each time. Further, the TGI in [8], in assay [9], in [10], in assay [11], in [12] and in [13] was more than 100 µM each time.
In the case of `Cc1nc(N)c(N2CCN(C(=O)O)CC2)c(=O)[nH]1`, the TGI in assay [1], in assay [2], in assay [3], in assay [4], in assay [5] and in [6] was more than 100 µM throughout. Further, the TGI in [7], in assay [8], in assay [9], in assay [10], in [11] and in assay [12] was more than 100 µM in each case. Moreover, the TGI in assay [15] and in assay [13] was more than 100 µM in each case.
On to `CC(=O)C1=C(C)N2C(=NC3=C(CCc4ccccc43)C2c2ccc(F)cc2)S1` (centres undefined), for which the TGI was more than 100 µM in assay [1]; more than 100 µM in assay [2]; more than 100 µM in [3]; 92.4 µM in assay [4]; more than 100 µM in assay [5]; more than 100 µM in [7]. Further, the TGI in assay [8], in assay [9], in assay [10], in [11], in assay [12] and in assay [13] was more than 100 µM throughout.
Turning to `COc1ccc(N=N/C(=N/NC(=O)c2ccc(C)cc2)c2ccc(N(CCC#N)CCC#N)cc2OC)cc1`, the TGI in assay [1], in assay [2], in [3], in assay [5], in assay [6] and in assay [14] was more than 100 µM each time. In addition, the TGI in assay [7], in assay [8], in assay [9], in assay [10], in [11] and in assay [12] was more than 100 µM throughout. Further, the TGI in assay [15] and in assay [13] was more than 100 µM each time.
Regarding `OC(c1ccc(F)cc1)C(F)(F)c1nc2ccccc2o1` (centres undefined), the TGI in assay [1], in assay [2], in [3], in assay [4], in [5] and in assay [6] was more than 100 µM in each case. Besides, the TGI in assay [14], in assay [7], in assay [8], in [9], in [10] and in [11] was more than 100 µM throughout. In assay [13], the TGI is more than 100 µM.
Take `COc1ccccc1NC(=S)N/N=C/c1c(C)n(C)n(-c2ccccc2)c1=O`: the TGI in [1], in [2], in assay [3], in assay [4], in [5] and in assay [6] was more than 100 µM throughout. Besides, the TGI in assay [14] is more than 100 µM; in assay [7], more than 100 µM; in [8], more than 100 µM; in [9], more than 100 µM; in [10], more than 100 µM; in assay [11] it was 63.9 µM. Besides, the TGI in assay [13] is more than 100 µM.
On to `C[C@@H](c1ccccc1)n1c(N)c(-c2ccccn2)c2ccc([N+](=O)[O-])cc2c1=O`, for which the TGI in [1], in assay [2], in assay [3], in assay [4], in [5] and in assay [6] was more than 100 µM in each case. For the same compound, the TGI in assay [14], in assay [8], in assay [9], in [10] and in assay [11] was more than 100 µM throughout.
